# Test results published in ChEMBL document CHEMBL2375230 (J Med Chem, 2013).
# Activity calls are given as the source filed them. The calls are words filed in the database; no cut-off is given here.
# How the values were obtained:
# HDFa = assay: Antiproliferative activity against HDFa cells at 10 uM after 30 hrs by [3H]-thymidine incorporation assay; assay type: functional, cell-based; details: Homo sapiens
# [1] = Antiproliferative activity against HDFa cells at 30 uM after 30 hrs by [3H]-thymidine incorporation assay relative to control; assay type: functional, Homo sapiens
# [2] = Antiproliferative activity against HDFa cells after 30 hrs by [3H]-thymidine incorporation assay; assay type: functional, cell-based, Homo sapiens
# [3] = Solubility of the compound; assay type: physicochemical
# HeLa [4] = assay: Antiproliferative activity against human HeLa cells after 30 hrs by [3H]-thymidine incorporation assay; assay type: functional, cell-based
# HUVEC [5] = assay: Cytotoxicity against HUVEC at 10 uM after 24 hrs; assay type: cell-based; details: human
# [6] = biological target: T1, Methionine aminopeptidase 1 (Homo sapiens, UniProt P53582); assay: Inhibition of human methionine aminopeptidase 1 in presence of Co2+
# [7] = biological target: T1, Methionine aminopeptidase 1; assay: Inhibition of human methionine aminopeptidase 1 in presence of Mn2+
# [8] = biological target: Methionine aminopeptidase 2 (Homo sapiens, UniProt P50579); assay: Inhibition of human methionine aminopeptidase 2 in presence of Mn2+
# Chain of Methionine aminopeptidase 2 (P50579 whole entry): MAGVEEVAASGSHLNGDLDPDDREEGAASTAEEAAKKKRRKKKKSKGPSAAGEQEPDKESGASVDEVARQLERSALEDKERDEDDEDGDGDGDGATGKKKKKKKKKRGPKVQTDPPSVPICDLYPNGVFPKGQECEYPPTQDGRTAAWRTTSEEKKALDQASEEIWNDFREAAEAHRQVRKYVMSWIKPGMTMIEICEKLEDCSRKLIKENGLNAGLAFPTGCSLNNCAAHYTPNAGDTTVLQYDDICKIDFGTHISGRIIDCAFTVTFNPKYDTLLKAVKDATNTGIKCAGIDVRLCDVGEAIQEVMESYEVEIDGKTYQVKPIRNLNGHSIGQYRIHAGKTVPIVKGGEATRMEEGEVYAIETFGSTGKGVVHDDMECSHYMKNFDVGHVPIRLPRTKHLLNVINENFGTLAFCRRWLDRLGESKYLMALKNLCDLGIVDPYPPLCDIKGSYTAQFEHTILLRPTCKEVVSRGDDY
# HUVEC [9] = assay: Antiproliferative activity against HUVEC after 30 hrs by [3H]-thymidine incorporation assay; assay type: functional, cell-based, Homo sapiens
# HUVEC [10] = assay: Antiproliferative activity against HUVEC at 30 uM after 30 hrs by [3H]-thymidine incorporation assay relative to control; assay type: functional, Homo sapiens
# [11] = biological target: T1, Methionine aminopeptidase 1; assay: Inhibition of human methionine aminopeptidase 1 up to 250 uM
# [12] = biological target: T1, Methionine aminopeptidase 1; assay: Inhibition of human methionine aminopeptidase 1 in presence of Zn2+
# HEK293 = assay: Inhibition of methionine aminopeptidase in HEK293 cells assessed as increase in ratio of unprocessed 14-3-3gamma to total 14-3-3gamma at 0.1 uM after 24 hrs by immunoblotting analysis relative to DMSO-treated control; assay type: cell-based; details: Homo sapiens
# HUVEC [13] = assay: Inhibition of methionine aminopeptidase in HUVEC assessed as increase in unprocessed 14-3-3gamma level at 0.1 to 10 uM by immunoblotting analysis; assay type: cell-based; details: Homo sapiens
# HUVEC [14] = assay: Inhibition of methionine aminopeptidase in HUVEC assessed as accumulation of unprocessed 14-3-3gamma at 10 nM after 24 hrs by immunoblotting analysis; assay type: cell-based; details: Homo sapiens
# HUVEC [15] = assay: Inhibition of methionine aminopeptidase in HUVEC assessed as increase in unprocessed 14-3-3gamma level at 0.1 to 10 uM by immunoblotting analysis in presence of cycloheximide; assay type: cell-based; details: Homo sapiens
# E6-1 = assay: Inhibition of methionine aminopeptidase in human Jurkat E6-1 cells assessed as increase in ratio of unprocessed 14-3-3gamma to total 14-3-3gamma at 0.1 uM after 24 hrs by immunoblotting analysis relative to DMSO-treated control; assay type: cell-based
# Homo sapiens = species on record: Homo sapiens; assay: Inhibition of methionine aminopeptidase in HUVEC assessed as increase in ratio of unprocessed 14-3-3gamma to total 14-3-3gamma at 0.1 uM after 24 hrs by immunoblotting analysis relative to control
# HeLa [16] = assay: Inhibition of methionine aminopeptidase in human HeLa cells assessed as increase in ratio of unprocessed 14-3-3gamma to total 14-3-3gamma at 0.1 uM after 24 hrs by immunoblotting analysis relative to DMSO-treated control; assay type: cell-based
# HUVEC [17] = assay: Inhibition of methionine aminopeptidase in HUVEC assessed as accumulation of unprocessed 14-3-3gamma at 1 nM after 24 hrs by immunoblotting analysis; assay type: cell-based; details: Homo sapiens
# [18] = biological target: T1, Methionine aminopeptidase 1; assay: Inhibition of methionine aminopeptidase 1 in HEK293 cells expressing 3xFLAG-tagged BTF3 assessed as increase in [35S]-Met in solution at 100 nM after 30 mins by scintillation counting analysis; assay type: cell-based
# MCF7 = assay: Inhibition of methionine aminopeptidase in human MCF7 cells assessed as increase in ratio of unprocessed 14-3-3gamma to total 14-3-3gamma at 0.1 uM after 24 hrs by immunoblotting analysis relative to DMSO-treated control; assay type: cell-based
# PC-3 = assay: Inhibition of methionine aminopeptidase in human PC3 cells assessed as increase in ratio of unprocessed 14-3-3gamma to total 14-3-3gamma at 0.1 uM after 24 hrs by immunoblotting analysis relative to DMSO-treated control; assay type: cell-based
smiles,measurement,setting,value
c1ccc(-c2ccccn2)nc1,Activity,HDFa,inactive
same,Activity,[1],94%
same,EC50,"[2]; Homo sapiens, HDFa",10 µM
Cc1nc(-c2ccc(Cl)cn2)nc(NC[C@@H](NCCCCc2ccccc2)c2ccccc2)c1Cl,solubility,[3],40 µM
same,EC50,"[2]; Homo sapiens, HDFa",0.76 µM
same,EC50,"HeLa [4]; Homo sapiens, HeLa",0.97 µM
same,Activity,HUVEC [5],Toxic
Clc1nc(-c2ccccn2)nc2ccccc12,EC50,[6],1.5 µM
same,EC50,[7],> 100 µM
same,EC50,[8],> 100 µM
c1ccc(-c2cc(N3CCOCC3)c3ccccc3n2)nc1,EC50,[6],0.41 µM
same,EC50,[7],> 100 µM
same,EC50,[8],> 100 µM
Cc1nc(-c2ccccn2)nc(NCCc2ccccc2)c1Cl,solubility,[3],90 µM
same,EC50,"HUVEC [9]; Homo sapiens, HUVEC",11 µM
same,EC50,"[2]; Homo sapiens, HDFa",3.6 µM
same,EC50,"HeLa [4]; Homo sapiens, HeLa",7.1 µM
same,Activity,HUVEC [10],>90%
Cc1nc(-c2ccccn2)nc(NCCNc2ccc(C(F)(F)F)cn2)c1Cl,solubility,[3],40 µM
same,EC50,"HUVEC [9]; Homo sapiens, HUVEC",4.3 µM
same,EC50,"[2]; Homo sapiens, HDFa",1.9 µM
same,EC50,"HeLa [4]; Homo sapiens, HeLa",10 µM
CN1CCN(c2cc(-c3ccccn3)nc3ccccc23)CC1,EC50,[6],0.87 µM
same,EC50,[7],> 100 µM
same,EC50,[8],> 100 µM
c1ccc2[nH]c(-c3cscn3)nc2c1 [THIABENDAZOLE],EC50,"HUVEC [9]; Homo sapiens, HUVEC",> 250 µM
same,EC50,[6],3.4 µM
same,EC50,[7],> 100 µM
same,inhibition,[11],inactive
same,EC50,[12],> 250 µM
same,EC50,"[2]; Homo sapiens, HDFa",> 250 µM
CCCCCCCCCCCCCC(=O)O[C@H]1CC[C@H](NC(=O)[C@H](OC)[C@H](O)[C@@H](O)[C@H](O)/C=C/C(C)C)C(=O)NC1,Ratio,HEK293,2.1
same,inhibition,HUVEC [13],Active
same,inhibition,HUVEC [14],Active
same,inhibition,HUVEC [15],inactive
same,Ratio,E6-1,1.4
same,Ratio,Homo sapiens,8.1
same,Ratio,HeLa [16],2.3
c1ccc(CCNc2nc(-c3ccccn3)nc3ccccc23)cc1,EC50,[6],0.94 µM
same,EC50,[7],24 µM
same,EC50,[8],> 100 µM
CC(C)(C)OC(=O)Nc1cccnc1C(=O)Nc1nccs1,EC50,"HUVEC [9]; Homo sapiens, HUVEC",2 µM
same,EC50,HUVEC [9]; huvec,1.5 µM
same,EC50,"[2]; Homo sapiens, HDFa",0.79 µM
same,EC50,[2]; hdfa,0.65 µM
same,EC50,"HeLa [4]; Homo sapiens, HeLa",2.3 µM
same,EC50,HeLa [4]; hela,2 µM
c1ccc(-c2nc(N3CCOCC3)c3ccccc3n2)nc1,EC50,[6],0.049 µM
same,EC50,[7],41 µM
same,EC50,[8],> 100 µM
CO[C@@H]1[C@H](OC(=O)NC(=O)CCl)CC[C@]2(CO2)[C@H]1[C@@]1(C)O[C@@H]1CC=C(C)C,inhibition,HUVEC [17],Active
same,inhibition,HUVEC [13],Active
same,inhibition,[18],inactive
same,inhibition,HUVEC [15],inactive
c1ccc(NCCNc2nc(-c3ccccn3)nc3ccccc23)cc1,EC50,[6],1.6 µM
same,EC50,[7],> 100 µM
same,EC50,[8],> 300 µM
c1ccc(-c2cc(N3CCCCC3)c3ccccc3n2)nc1,EC50,[6],0.39 µM
same,EC50,[7],> 100 µM
same,EC50,[8],> 100 µM
CCCCCCCCCCCCCC(=O)O[C@H]1CC[C@H](NC(=O)[C@H](OC)[C@H](O)[C@@H](O)[C@H](O)/C=C/C(C)C)C(=O)N(C)C1,Ratio,MCF7,2.6
same,Ratio,PC-3,2.1
c1ccc(-c2nc(N3CCCCC3)c3ccccc3n2)nc1,EC50,[6],0.11 µM
same,EC50,[7],7.6 µM
same,EC50,[8],> 100 µM
